# Test results from patent US20250319107A1, “USE OF CANNABIDIOL AND CLOBAZAM IN THE TREATMENT OF CHILDHOOD-ONSET EPILEPSY SYNDROMES” (GW Research Limited, priority 2021, published 2025).
# Columns and labels:
# adult patients = settings: 200 mg/day of pure CBD; four adult patients; cited from earlier work
# patients with TSC = test: Phase 3 randomized controlled trial of CBD versus placebo, adverse reactions in TSC patients; format: in vivo, human; settings: for Alanine aminotransferase increased, adverse reaction incidence / Anaemia, adverse reaction incidence / Aspartate aminotransferase increased, adverse reaction incidence / Decreased appetite, adverse reaction incidence / Diarrhoea, adverse reaction incidence / Eosinophil count increased, adverse reaction incidence / Fatigue, adverse reaction incidence / Gamma glutamyl transferase increased, adverse reaction incidence / Nausea, adverse reaction incidence / Pneumonia (grouped terms), adverse reaction incidence / Pyrexia, adverse reaction incidence / Rash, adverse reaction incidence / Somnolence, adverse reaction incidence / Urinary tract infection, adverse reaction incidence / Vomiting, adverse reaction incidence / Weight decreased, adverse reaction incidence / Subjects with pneumonia, %: TSC; for Alanine aminotransferase increased, adverse reaction incidence / Anaemia, adverse reaction incidence / Aspartate aminotransferase increased, adverse reaction incidence / Decreased appetite, adverse reaction incidence / Diarrhoea, adverse reaction incidence / Eosinophil count increased, adverse reaction incidence / Fatigue, adverse reaction incidence / Gamma glutamyl transferase increased, adverse reaction incidence / Nausea, adverse reaction incidence / Pneumonia (grouped terms), adverse reaction incidence / Pyrexia, adverse reaction incidence / Rash, adverse reaction incidence / Somnolence, adverse reaction incidence / Urinary tract infection, adverse reaction incidence / Vomiting, adverse reaction incidence / Weight decreased, adverse reaction incidence: 12-week treatment
# Text: (§1) Randomized, double-blind, parallel-group, trials of CBD versus placebo were undertaken and the adverse event experienced by the patients were collated and investigated.
# (§2) In summary patients completed a 1-week screening period and a 4-week baseline period before they were randomized to receive CBD or equivalent volumes of placebo. Randomization was stratified by age.
# (§3) Patients began a 4-week dose escalation period, titrating up to their assigned dose, before continuing on a stable dose of blinded investigational medicinal product (IMP) for 12 or 14 weeks.
# (§4) Dose escalation for each patient was subject to the investigator's assessment of safety and tolerability. If a dose became poorly tolerated, the investigator may consider temporarily or permanently reducing the dose for the remainder of the study.
# (§5) Clinic visits occurred for screening (Day-35), baseline (Day-28), randomization (Day 1) and, on Days 15 and 29 during titration and on Days 43, 57, 71 (telephone) and 85 until the end of treatment (Day 113). Safety telephone calls were completed every two days during titration, one week after the end of titration and, for patients not entering the open label extension (OLE), weekly from Visit 10 to Visit 12.
# (§6) Safety and tolerability measures that were recorded included: adverse events; clinical laboratory parameters; 12-lead electrocardiogram (ECG); physical examination parameters (including height and weight); vital signs; Columbia-Suicide Severity Rating Scale (C-SSRS; 19+ years) or C-SSRS Children's (6-18 years) score, where applicable; number of inpatient hospitalizations due to epilepsy; abuse liability and effects on menstruation cycles (in females).
# Table 1.12 below lists the adverse reactions that were reported in TSC patients treated with CBD during the 12-week treatment period in the Phase 3 controlled trial.
# [1] = test system: patients with LGS, DS, or TSC; test: Double-blind placebo-controlled trials across LGS, DS and TSC, overall statements; format: in vivo, human
# Text: as §1, §2, §3, §6
# patients with LGS or DS = test: Phase 3 randomized controlled trials of CBD versus placebo, adverse reactions in DS and LGS patients; format: in vivo, human; settings: 10 mg/kg/day (n = 139); DS and LGS; 14-week treatment
# Text: as §1, §2, §3, §4, §5, §6
# Table 1.1 below lists the adverse reactions that were reported in DS and LGS patients treated with CBD during the 14-week treatment period in the Phase 3 controlled trials.
# [2] = 50 mg/kg/day group (N = 73; one-third did not reach 50 mg/kg/day)
structure (smiles),measurement,setting,value
"C=C(C)[C@@H]1CCC(C)=C[C@H]1c1c(O)cc(CCCCC)cc1O [CBD, cannabidiol]",Patients who became seizure free,adult patients,two of the four
same,"Alanine aminotransferase increased, adverse reaction incidence",patients with TSC; 25 mg/kg/day (N = 75),12%
same,"Anaemia, adverse reaction incidence",patients with TSC; 25 mg/kg/day (N = 75),7%
same,"Aspartate aminotransferase increased, adverse reaction incidence",patients with TSC; 25 mg/kg/day (N = 75),11%
same,"Decreased appetite, adverse reaction incidence",patients with TSC; 25 mg/kg/day (N = 75),20%
same,"Diarrhoea, adverse reaction incidence",patients with TSC; 25 mg/kg/day (N = 75),31%
same,"Eosinophil count increased, adverse reaction incidence",patients with TSC; 25 mg/kg/day (N = 75),5%
same,"Fatigue, adverse reaction incidence",patients with TSC; 25 mg/kg/day (N = 75),5%
same,"Gamma glutamyl transferase increased, adverse reaction incidence",patients with TSC; 25 mg/kg/day (N = 75),16%
same,"Nausea, adverse reaction incidence",patients with TSC; 25 mg/kg/day (N = 75),9%
same,"Pneumonia (grouped terms), adverse reaction incidence",patients with TSC; 25 mg/kg/day (N = 75),4%
same,"Pyrexia, adverse reaction incidence",patients with TSC; 25 mg/kg/day (N = 75),19%
same,"Rash, adverse reaction incidence",patients with TSC; 25 mg/kg/day (N = 75),7%
same,"Somnolence, adverse reaction incidence",patients with TSC; 25 mg/kg/day (N = 75),13%
same,"Urinary tract infection, adverse reaction incidence",patients with TSC; 25 mg/kg/day (N = 75),5%
same,"Vomiting, adverse reaction incidence",patients with TSC; 25 mg/kg/day (N = 75),17%
same,"Weight decreased, adverse reaction incidence",patients with TSC; 25 mg/kg/day (N = 75),7%
same,Patients who developed a new laboratory-defined anaemia during the study,"patients with TSC; 25 mg/kg/day, patients with TSC, normal haemoglobin at baseline, later below lower limit of normal",38%
same,"Alanine aminotransferase increased, adverse reaction incidence",patients with TSC; [2],22%
same,"Anaemia, adverse reaction incidence",patients with TSC; [2],4%
same,"Aspartate aminotransferase increased, adverse reaction incidence",patients with TSC; [2],19%
same,"Decreased appetite, adverse reaction incidence",patients with TSC; [2],23%
same,"Diarrhoea, adverse reaction incidence",patients with TSC; [2],56%
same,"Eosinophil count increased, adverse reaction incidence",patients with TSC; [2],1%
same,"Fatigue, adverse reaction incidence",patients with TSC; [2],6%
same,"Gamma glutamyl transferase increased, adverse reaction incidence",patients with TSC; [2],14%
same,"Nausea, adverse reaction incidence",patients with TSC; [2],3%
same,"Pneumonia (grouped terms), adverse reaction incidence",patients with TSC; [2],3%
same,"Pyrexia, adverse reaction incidence",patients with TSC; [2],16%
same,"Rash, adverse reaction incidence",patients with TSC; [2],12%
same,"Somnolence, adverse reaction incidence",patients with TSC; [2],26%
same,"Urinary tract infection, adverse reaction incidence",patients with TSC; [2],1%
same,"Vomiting, adverse reaction incidence",patients with TSC; [2],18%
same,"Weight decreased, adverse reaction incidence",patients with TSC; [2],8%
same,"Subjects with pneumonia, %","patients with TSC; With CLB, 25 mg/kg/day, N1 = 18",16.7%
same,"Subjects with pneumonia, %","patients with TSC; With CLB, 50 mg/kg/day, N1 = 20",5.0%
same,"Subjects with pneumonia, %","patients with TSC; Without CLB, 50 mg/kg/day, N2 = 53",1.9%
same,Discontinuation for transaminase elevation,patients with TSC; controlled trial in TSC,dose responsive
same,Pneumonia incidence,"patients with TSC; with concomitant clobazam, 25 mg/kg/day, patients with TSC",17%
same,Pneumonia incidence,"patients with TSC; without clobazam, 25 mg/kg/day, patients with TSC",0%
same,Seizure frequency versus placebo,"[1]; CBD alone or in combination with clobazam, across all treatment groups",significant reduction
same,Decrease in weight,"[1]; patients with LGS, DS, or TSC",dose related
same,Incidence of pneumonia in patients concurrently taking clobazam in addition to CBD,"[1]; versus patients not taking clobazam, LGS, DS and TSC",significantly higher
same,"Abnormal behavior, adverse reaction incidence",patients with LGS or DS,0%
same,"Aggression, adverse reaction incidence",patients with LGS or DS,2%
same,"Agitation, adverse reaction incidence",patients with LGS or DS,0%
same,"Alanine aminotransferase increased, adverse reaction incidence",patients with LGS or DS,4%
same,"Aspartate aminotransferase increased, adverse reaction incidence",patients with LGS or DS,4%
same,"Decreased appetite, adverse reaction incidence",patients with LGS or DS,17%
same,"Diarrhea, adverse reaction incidence",patients with LGS or DS,13%
same,"Drooling, adverse reaction incidence",patients with LGS or DS,0%
same,"Fatigue, adverse reaction incidence",patients with LGS or DS,7%
same,"Gamma-glutamyl transferase increased, adverse reaction incidence",patients with LGS or DS,4%
same,"Insomnia, adverse reaction incidence",patients with LGS or DS,4%
same,"Irritability, adverse reaction incidence",patients with LGS or DS,7%
same,"Lethargy, adverse reaction incidence",patients with LGS or DS,3%
same,"Liver function test increased, adverse reaction incidence",patients with LGS or DS,0%
